14 molecules from patent publication US11951094B2, “TLR2 modulator compounds, pharmaceutical compositions and uses thereof” (Axial Therapeutics, Inc., priority 2020, dated 2024) can be followed below.

Chain of TLR2 (O60603 21-784): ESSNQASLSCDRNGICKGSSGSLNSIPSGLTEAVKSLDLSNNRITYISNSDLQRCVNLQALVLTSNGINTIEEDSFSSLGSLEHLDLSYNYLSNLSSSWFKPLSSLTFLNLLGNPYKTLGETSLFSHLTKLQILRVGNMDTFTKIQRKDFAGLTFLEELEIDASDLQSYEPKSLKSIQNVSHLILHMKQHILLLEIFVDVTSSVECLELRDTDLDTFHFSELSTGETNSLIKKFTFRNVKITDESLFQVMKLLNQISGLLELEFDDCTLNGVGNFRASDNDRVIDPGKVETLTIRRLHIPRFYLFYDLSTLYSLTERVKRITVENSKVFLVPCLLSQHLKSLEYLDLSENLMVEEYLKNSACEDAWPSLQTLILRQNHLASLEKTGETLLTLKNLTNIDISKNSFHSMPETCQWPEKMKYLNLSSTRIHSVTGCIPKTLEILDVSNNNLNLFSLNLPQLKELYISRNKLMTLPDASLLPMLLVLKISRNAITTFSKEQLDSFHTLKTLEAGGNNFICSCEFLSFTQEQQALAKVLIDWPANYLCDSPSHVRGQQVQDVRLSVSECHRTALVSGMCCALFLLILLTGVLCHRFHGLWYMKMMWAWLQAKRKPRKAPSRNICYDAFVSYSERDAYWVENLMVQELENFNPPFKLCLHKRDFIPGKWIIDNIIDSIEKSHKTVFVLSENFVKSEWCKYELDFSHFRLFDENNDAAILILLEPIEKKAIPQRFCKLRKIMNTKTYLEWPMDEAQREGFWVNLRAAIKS

The first test addresses TLR2 (Homo sapiens, UniProt O60603). Briefly: TLR2 agonist screening assay, HEK-Blue TLR2 reporter cell line (NF-kB-driven SEAP, absorbance at 600 nm). It is filed as cell-based. More on the design: host or cells: HEK-293 (HEK-Blue TLR2 reporter cell line). To be noted: HEK-Blue TLR2 reporter cells, agonist mode; average of all runs (Table 3). The text has this: TLRs are a class of cell-surface receptors expressed on many different cell types that recognize conserved structural motifs present on pathogen-derived molecules. TLR2 recognizes bacteria-derived lipopeptides. […] Provided herein is an assay to identify and characterize the binding affinities of novel TLR2 agonists.
The in vitro TLR2 assay consists of a cell line that responds to TLR2 engagement by producing a factor that elicits a color change in the culture media and can be readily measured by various colorimetric detection methods. This assay enables the identification of existing and novel compounds that engage TLR2 and, by virtue of compound dilution, to approximate the binding affinity of these compounds for eliciting a TLR2 signal.
The TLR2 screening assay was developed from the HEK-Blue TLR2 reporter cell line that is commercially available from Invivogen (San Diego, CA). The reporter cell line consists of HEK-293 embryonic kidney cells that have been engineered to express TLR2 and with an NF-kB promoter driving expression of Secreted Alkaline Phosphatase (SEAP). Upon engagement of TLR2, downstream signaling results in activation of NF-kB pathway activation and secretion of SEAR In the presence of the detection reagent in the tissue culture media, SEAP mediates a color change from clear to indigo that is readily assessed by measuring absorbance at 600 nm.
HEK-Blue TLR2 reporter cells are cultured according to manufacturer's specifications until a confluence of 70-90%, at which point the cells are trypsinized, counted, and plated into 96-well plates at approximately 40,000 cells per well. Cells are cultured overnight and the TLR2 assay is performed 16-24 hours post-plating into 96 well plates.
Compounds are diluted from stocks dissolved in DMSO and a 1% DMSO final concentration is maintained in all testing wells.
The assay consists of removing the cell culture media after cells have been cultured overnight and replacing the media with HEK-Blue Detection media with TLR2 agonists at indicated dilution schemes. The Detection media contains a chemical substrate that turns from clear to indigo when acted upon by SEAP. The HEK-Blue cells are then cultured overnight in Detection media with diluted compounds. After overnight culture with agonists, each well of the plate is assayed in a plate reader at 600 nanometer absorbance.
• (1) HEK-Blue TLR2 cells are diluted in complete DME culture medium and plated into 96-well plates at 40,000 cells per well and cultured overnight. • (2) After 16-24 hours in culture, the media is removed and replaced with 200 microliters per well of HEK-Blue Detection media. • (3) TLR2 agonists are diluted 100-fold from DMSO stocks into each well, yielding a final DMSO concentration of 1% in all wells. • (3) Treated cells are cultured overnight and the following day are assayed in plate reader for Absorbance at 600 nanometer.
Following assay measurements utilizing either HEK-Blue detection or cytokine release, all data is analyzed with the GraphPad Prism8 statistical package to determine EC50, binding and activity metrics for the TLR2 modulators.
Data is generated using protocol described in Example 44.
One may read the EC50 as the concentration giving half of the maximal effect. A lower EC50 goes with an effect from little substance. In the case of `CCCCCCCCCCCCCCNC(=O)[C@@H]1CN(C(=O)c2ccc(C(=O)N3C[C@@H](C(=O)N[C@H]4C[C@@H]4c4ccccc4)[C@H](C(=O)N[C@H]4C[C@@H]4c4ccccc4)C3)cc2)C[C@H]1NC(C)=O` [Compound 028, (3S,4S)-1-(4-((3S,4R)-3-acetamido-4-(tetradecylcarbamoyl)pyrrolidine-1-carbonyl)benzoyl)-N3,N4-bis((1S,2R)-2-phenylcyclopropyl)pyrrolidine-3,4-dicarboxamide], the concentration for a half-maximal effect (EC50) is 51 to 350 nM.
Molecule `CCCCCCNC(=O)C1CN(C(=O)c2ccc(C(=O)N3C[C@@H](C(=O)N[C@H]4C[C@@H]4c4ccccc4)[C@H](C(=O)N[C@H]4C[C@@H]4c4ccccc4)C3)cc2)CCN1C(=O)CCc1ccc(F)cc1` (stereo partly drawn) [Compound 041, (3S,4S)-1-(4-(4-(3-(4-fluorophenyl)propanoyl)-3-(hexylcarbamoyl)piperazine-1-carbonyl)benzoyl)-N3,N4-bis((1S,2R)-2-phenylcyclopropyl)pyrrolidine-3,4-dicarboxamide] gave a concentration for a half-maximal effect (EC50) of 351 to 1000 nM.
The molecule `CCCCCCCCC(=O)N1CCN(C(=O)c2ccc(C(=O)N3C[C@@H](C(=O)N[C@H]4C[C@@H]4c4ccccc4)[C@H](C(=O)N[C@H]4C[C@@H]4c4ccccc4)C3)cc2)CC1C(=O)NCCCCCC` (stereo partly drawn) [Compound 051, (3S,4S)-1-(4-(3-(hexylcarbamoyl)-4-nonanoylpiperazine-1-carbonyl)benzoyl)-N3,N4-bis((1S,2R)-2-phenylcyclopropyl)pyrrolidine-3,4-dicarboxamide] showed a 50% effective concentration (EC50) of 0.1 to 50 nM.

Still in this test, the particulars now being: HEK-Blue TLR2 reporter cells, agonist mode; average of all runs (Table 4).
`CCCCCCCCCCCCCNC(=O)N[C@H]1CN(c2ncc(-c3ccc(C(=O)N4C[C@@H](C(=O)N[C@H]5C[C@@H]5c5ccccc5)[C@H](C(=O)N[C@H]5C[C@@H]5c5ccccc5)C4)cc3)s2)C[C@@H]1OC` [Compound 244, (3S,4S)-1-(4-(2-((3S,4S)-3-methoxy-4-(3-tridecylureido)pyrrolidin-1-yl)thiazol-5-yl)benzoyl)-N3,N4-bis((1S,2R)-2-phenylcyclopropyl)pyrrolidine-3,4-dicarboxamide] showed a half-maximal effective concentration (EC50) of 351 to 1000 nM.
On the same count and under the same terms, as for `CCCCCCCNC(=O)[C@@H]1CN(C(=O)c2ccc(C(=O)N3C[C@@H](C(=O)N[C@H]4C[C@@H]4c4ccccc4)[C@H](C(=O)N[C@H]4C[C@@H]4c4ccccc4)C3)cc2)CCN1C(C)=O` [Compound 258, (3S,4S)-1-(4-((S)-4-acetyl-3-(heptylcarbamoyl)piperazine-1-carbonyl)benzoyl)-N3,N4-bis((1S,2R)-2-phenylcyclopropyl)pyrrolidine-3,4-dicarboxamide], the figure is > 1000 nM.
Turning to `CCCCCCCCCCCCCCNC(=O)[C@@H]1CN(Cc2ccc(C(=O)N3C[C@@H](C(=O)N[C@H]4C[C@@H]4c4ccccc4)[C@H](C(=O)N[C@H]4C[C@@H]4c4ccccc4)C3)cc2)C(=O)CN1C` [Compound 093, (3S,4S)-1-(4-(((S)-4-methyl-2-oxo-5-(tetradecylcarbamoyl)piperazin-1-yl)methyl)benzoyl)-N3,N4-bis((1S,2R)-2-phenylcyclopropyl)pyrrolidine-3,4-dicarboxamide], the EC50 lay in the range of 51 to 350 nM.
Still for that read-out and setting: in the case of `CCCCCCCCCCCCCCNC(=O)[C@H]1CN(C(=O)c2cccc(C(=O)N3C[C@@H](C(=O)N[C@H]4C[C@@H]4c4ccccc4)[C@H](C(=O)N[C@H]4C[C@@H]4c4ccccc4)C3)c2)CCN1C(C)=O` [Compound 172, (3S,4S)-1-(3-((R)-4-acetyl-3-(tetradecylcarbamoyl)piperazine-1-carbonyl)benzoyl)-N3,N4-bis((1S,2R)-2-phenylcyclopropyl)pyrrolidine-3,4-dicarboxamide] it was > 1000 nM; in that of `CCCCCCCCCC(=O)N[C@@H](Cc1nc(-c2ccc(C(=O)N3C[C@@H](C(=O)N[C@H]4C[C@@H]4c4ccccc4)[C@H](C(=O)N[C@H]4C[C@@H]4c4ccccc4)C3)cc2)no1)C(=O)NCCCCCC` [Compound 249, (3S,4S)-1-(4-(5-((S)-2-decanamido-3-(hexylamino)-3-oxopropyl)-1,2,4-oxadiazol-3-yl)benzoyl)-N3,N4-bis((1S,2R)-2-phenylcyclopropyl)pyrrolidine-3,4-dicarboxamide], > 1000 nM; in that of `O=C(N[C@H]1C[C@@H]1c1ccccc1)[C@@H]1CN(C(=O)c2ccc(C(=O)N3C[C@@H](C(=O)N[C@H]4C[C@@H]4c4cccnc4)[C@H](C(=O)N[C@H]4C[C@@H]4c4cccnc4)C3)cc2)C[C@H]1C(=O)N[C@H]1C[C@@H]1c1ccccc1` (single isomer, unassigned) [Compound 094, (3S,4S)-1-(4-((3S,4S)-3,4-bis(((1S*,2R*)-2-(pyridin-3-yl)cyclopropyl)carbamoyl)pyrrolidine-1-carbonyl)benzoyl)-N3,N4-bis((1S,2R)-2-phenylcyclopropyl) pyrrolidine-3,4-dicarboxamide], 51 to 350 nM.
On the same count and under the same terms, in the case of `CCCCCCCCCCCCCCCN[C@@H]1CCN(C(=O)c2ccc(C(=O)N3C[C@@H](C(=O)N[C@H]4C[C@@H]4c4ccccc4)[C@H](C(=O)N[C@H]4C[C@@H]4c4ccccc4)C3)cc2)C1` [Compound 082, (3S,4S)-1-(4-((R)-3-(pentadecylamino)pyrrolidine-1-carbonyl)benzoyl)-N3,N4-bis((1S,2R)-2-phenylcyclopropyl)pyrrolidine-3,4-dicarboxamide] it was > 1000 nM.
Still for that read-out and setting: in the case of `CCCCCCCCCCCCCCC(=O)NC1CCN(S(=O)(=O)c2cccc(C(=O)N3C[C@@H](C(=O)N[C@H]4C[C@@H]4c4ccccc4)[C@H](C(=O)N[C@H]4C[C@@H]4c4ccccc4)C3)c2)CC1` [Compound 194, (3S,4S)-1-(3-((4-pentadecanamidopiperidin-1-yl)sulfonyl)benzoyl)-N3,N4-bis((1S,2R)-2-phenylcyclopropyl)pyrrolidine-3,4-dicarboxamide] it was > 1000 nM; in that of `CCCCCCCCCC(=O)N[C@@H](CN1C(=O)c2ccc(C(=O)N3C[C@@H](C(=O)N[C@H]4C[C@@H]4c4ccccc4)[C@H](C(=O)N[C@H]4C[C@@H]4c4ccccc4)C3)cc2C1=O)C(=O)NCCCCCC` [Compound 240, (3S,4S)-1-(2-((S)-2-decanamido-3-(hexylamino)-3-oxopropyl)-1,3-dioxoisoindoline-5-carbonyl)-N3,N4-bis((1S,2R)-2-phenylcyclopropyl)pyrrolidine-3,4-dicarboxamide], > 1000 nM.
Turning to `CCCCCCNC(=O)[C@@H](CNC(=O)CCCCCC)NC(=O)c1ccc(C(=O)N2C[C@@H](C(=O)N[C@H]3C[C@@H]3c3ccccc3)[C@H](C(=O)N[C@H]3C[C@@H]3c3ccccc3)C2)cc1` [Compound 118, (3S,4S)-1-(4-(((R)-3-heptanamido-1-(hexylamino)-1-oxopropan-2-yl)carbamoyl)benzoyl)-N3,N4-bis((1S,2R)-2-phenylcyclopropyl) pyrrolidine-3,4-dicarboxamide], the 50% effective concentration (EC50) was > 1000 nM.
On the same count and under the same terms, as for `CCCCCCCCCCCCCCC(=O)N[C@@H]1CCN(Cc2ccc(C(=O)N3C[C@@H](C(=O)N[C@H]4C[C@@H]4c4ccccc4)[C@H](C(=O)N[C@H]4C[C@@H]4c4ccccc4)C3)cc2)C1=O` [Compound 126, (3S,4S)-1-(4-(((R)-2-oxo-3-pentadecanamidopyrrolidin-1-yl)methyl)benzoyl)-N3,N4-bis((1S,2R)-2-phenylcyclopropyl)pyrrolidine-3,4-dicarboxamide], the figure is > 1000 nM.
